A short description of data set [1]: Dissolution rate in 0.07 N Hydrochloric acid. The format is physicochemical.
Data set [2] is described as follows: Accelerated storage stability of cefdinir, Aluminum pouch, 40 ± 2° C., Rh 75 ± 5%. The format is physicochemical.
For data set [3] the following is noted: 0.07 N Hydrochloric acid, cited from earlier work.
The conditions of data set [4]: accelerated stability tests; cited from earlier work.
The mark [5] stands for this setting: After 30 days at 40 ± 2° C., Rh 75 ± 5%.
Setting [6] is: After 60 days at 40 ± 2° C., Rh 75 ± 5%.
Where [7] appears, read: After 180 days at 40 ± 2° C., Rh 75 ± 5%.

In the case of `C=CC1=C(C(=O)O)N2C(=O)[C@@H](NC(=O)/C(=N\O)c3csc(N)n3)[C@H]2SC1` [(Z)-7-[2-(2-amino-4-thiazolyl)-2-hydroxyiminoacetamido]-3-vinyl-3-cephem-4-carboxylic acid], in data set [1], the “IDR: Intrinsic Dissolution Rate” value is reported as 0.1831 mg/cm^2/min. Also, the “dissolution rate compared with reference “Crystal A” and material of U.S. Application No. 2003/0204082 A” value in data set [1] is recorded as “superior”. Further, the “Dissolution Profile” value in data set [1] (15 Mins) was 4.15 mg/cm^2; in data set [1] (30 Mins) it was 8.26 mg/cm^2; in data set [1] (45 Mins), 10.31 mg/cm^2; in data set [1] (60 Mins), 14.66 mg/cm^2; in data set [1] (75 Mins), 16.29 mg/cm^2; in data set [1] (90 Mins) it was 19.47 mg/cm^2. Also, the “Dissolution Profile” value in data set [1] (105 Mins) stood at 22.17 mg/cm^2; in data set [1] (120 Mins), 23.01 mg/cm^2. Also, the thermal stability result in data set [2] (40° C. (75% Rh)) is “excellent thermal stability”. Besides, the “Assay by HPLC (% on Dry Basis)” value in data set [2] (setting [5]) amounted to 97.92 % on Dry Basis; in data set [2] (setting [6]), 97.38 % on Dry Basis; in data set [2] (setting [7]), 96.65 % on Dry Basis; in data set [2] (Initial), 98.37 % on Dry Basis. Further, the “Water Content (%)” value in data set [2] (setting [5]) stood at 7.46%; in data set [2] (setting [6]), 7.27%; in data set [2] (setting [7]) it was 7.60%; in data set [2] (Initial), 7.05%. For the same molecule, the “pH (1% Aqueous suspension)” value worked out at 3.46 in data set [2] (setting [5]), 3.45 in data set [2] (setting [6]), 3.55 in data set [2] (setting [7]) and 3.40 in data set [2] (Initial).
As for `C=CC1=C(C(=O)O)N2C(=O)[C@@H](NC(=O)/C(=N\O)c3csc(N)n3)[C@H]2SC1` [Cefdinir Prepared as per the Method of Dobfar's US Applicati] [reference compound], in data set [3] (after the first hour), the “solubility compared with reference “Crystal A”” value was “more soluble”. In addition, the “dissolution rate compared with reference “Crystal A”” value in data set [3] (initially) is recorded as “initially slower”. In addition, the “stability compared with reference “Crystal A”” value in data set [4] was “at least equal to that of the reference “Crystal A””. Besides, the “IDR: Intrinsic Dissolution Rate” value in data set [1] turned out to be 0.1392 mg/cm^2/min. The “Dissolution Profile” value in data set [1] (15 Mins) amounted to 4.59 mg/cm^2; in data set [1] (30 Mins) it was 6.01 mg/cm^2; in data set [1] (45 Mins), 8.70 mg/cm^2; in data set [1] (60 Mins), 10.42 mg/cm^2; in data set [1] (75 Mins), 12.23 mg/cm^2; in data set [1] (90 Mins), 14.94 mg/cm^2. Also, the “Dissolution Profile” value in data set [1] (105 Mins) is 16.79 mg/cm^2; in data set [1] (120 Mins), 19.02 mg/cm^2.

These data come from US20050245738A1, “Stable bioavailable crystalline form or cefdinir and a process for the preparation thereof” (LUPIN LTD, priority 2004, published 2005).
